Holding throughout (experiment): NCI tumour cell line growth inhibition, 48 h
Assay [1] concerns DMS-114.
For assay [2], the system named is DMS-273.
The test system of assay [3] is HOP-18.
Assay [4] deals with KM-20L2.
Assay [5] relates to M19-MEL.
The subject of assay [6] is SNB-78.
The subject of assay [7] is XF498.
Assay [8] has as its system DLD-1.
Assay [9] deals with RXF 631.

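96-well plates; 48 h exposure; 5 concentrations. Endpoints by linear interpolation between flanking doses. Not reached: highest tested concentration assigned. GI50 marks 50% less growth.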 Active and inactive are the calls of the source. No stated cut-off is given here; in the data, active = GI50 up to about 1.1 µM and inactive = higher.

As for `N#CC1(Cc2ccccc2Cl)c2ccccc2C=CN1C(=O)c1ccccc1` (stereo unspecified), the GI50 is 96.8 µM (inactive) in [1]; > 100 µM (inactive) in assay [2]; > 100 µM (inactive) in [3]; > 100 µM (inactive) in [4]; > 100 µM (inactive) in assay [5]; > 100 µM (inactive) in assay [6]. Further, the GI50 in assay [7] was 40.1 µM (inactive).

Consider `COC(=O)C1C(OCc2ccccc2)C2CCC1(OC)C=C2C` (stereo unspecified), for which the GI50 in assay [8] is > 100 µM (inactive); in assay [1] it was > 57.1 µM (inactive); in [2], > 55.3 µM (inactive); in assay [3], > 100 µM (inactive); in assay [4], > 100 µM (inactive); in [5], > 58.3 µM (inactive). The GI50 in [6] was > 100 µM (inactive); in [7], > 45.1 µM (inactive).

As for `O=C1SC(c2ccccc2)(c2ccccc2)c2ccccc21`, the GI50 was 52.8 µM (inactive) in assay [8]; 26 µM (inactive) in [1]; > 100 µM (inactive) in assay [2]; > 100 µM (inactive) in assay [3]; 46.8 µM (inactive) in [4]; > 100 µM (inactive) in [5]. Further, the GI50 in assay [6] and in [7] was > 100 µM (inactive) each time.

As to `[N-]=[N+]=NC1(c2ccccc2)C(=O)C(Cl)=C(c2ccccc2)N(c2ccccc2)C1=O` (stereo unspecified), the GI50 is > 100 µM (inactive) in assay [8]; 46.2 µM (inactive) in assay [1]; > 100 µM (inactive) in assay [2]; > 100 µM (inactive) in assay [3]; > 100 µM (inactive) in [4]; > 100 µM (inactive) in [5]. Besides, the GI50 in assay [6] was 31.4 µM (inactive).

Turning to `O=C(O)C(CS)NCc1c2ccccc2[n+]([O-])c2ccccc12` (stereo unspecified), the GI50 is 31.6 µM (inactive) in [8]; 22.8 µM (inactive) in assay [1]; 31.6 µM (inactive) in assay [2]; 97.1 µM (inactive) in assay [3]; 37.2 µM (inactive) in [4]; 33.6 µM (inactive) in assay [5]. Besides, the GI50 in assay [9] is 37.6 µM (inactive); in [6], 38 µM (inactive).

As for `CC(C)OP(=O)(OC(C)C)/C(=N/Nc1ccc([N+](=O)[O-])cc1)NNC(=O)c1ccccc1`, the GI50 in [8] was 39.2 µM (inactive); in [1], 21.8 µM (inactive); in assay [2], > 10 µM (inactive); in [4] it was 48.4 µM (inactive); in assay [5] it was 20.9 µM (inactive); in [6], 24.4 µM (inactive). Also, in assay [7], the GI50 is 24.8 µM (inactive).

As to `Cc1nc(=O)[nH]c2[nH][nH]c(=O)c12`, the GI50 in assay [1], in [3] and in assay [5] was > 100 µM (inactive) in each case.

In the case of `COc1cc2c(cc1OC)-c1c3cc(O)ccc3nn[n+]1CC2`, the GI50 in assay [8], in assay [1], in [2], in assay [3], in assay [4] and in assay [5] was > 100 µM (inactive) in each case. In addition, the GI50 in assay [6] and in assay [7] was > 100 µM (inactive) in each case.

As for `CCOC(=O)/C(=C/c1ccc(OC)cc1)N(CC)CC`, the GI50 was > 100 µM (inactive) in [1]; > 100 µM (inactive) in [2]; > 100 µM (inactive) in assay [4]; > 100 µM (inactive) in [5]; 34.5 µM (inactive) in assay [6]; > 100 µM (inactive) in [7].

As for `C#CCOCn1cnc2ncnc(N)c21`, the GI50 in [8], in assay [1], in assay [2], in assay [3], in assay [5] and in assay [6] was > 100 µM (inactive) each time. The GI50 in [7] is > 100 µM (inactive).

As for `CSc1ccc(/C=C2\CNC/C(=C\c3ccc(SC)cc3)C2=O)cc1`, the GI50 is 34 µM (inactive) in assay [1], 22.6 µM (inactive) in assay [9] and 8 µM (inactive) in assay [7].

Turning to `CC(=O)OC1(C#N)CC2OC1C1N=NN(C(=O)OC(C)(C)C)C21` (stereo unspecified), the GI50 was 14.7 µM (inactive) in [8]; 13.2 µM (inactive) in assay [1]; 36.5 µM (inactive) in [2]; > 100 µM (inactive) in assay [3]; > 100 µM (inactive) in [4]; > 100 µM (inactive) in assay [5]. Besides, the results for the GI50 in assay [6] and in [7] were 21.1 µM (inactive) and 89.7 µM (inactive), respectively.

For the molecule `C=CC[P@]1(=O)O[C@H](c2ccccc2)[C@H](C)N1C`, the GI50 in assay [8] is > 100 µM (inactive); in [1] it was > 100 µM (inactive); in assay [2] it was > 100 µM (inactive); in assay [3], 79.1 µM (inactive); in assay [5], > 100 µM (inactive); in assay [6] it was > 100 µM (inactive).

Take `N[C@H](C(=O)O)[C@H](Cl)CC(=O)O`: the GI50 in [8], in [1], in assay [2], in assay [3], in assay [4] and in assay [5] was > 100 µM (inactive) throughout. Moreover, the GI50 in assay [6] and in assay [7] was > 100 µM (inactive) throughout.

For the molecule `Cc1cc(N(CC(C)Br)CC(C)Br)ccc1/N=N/c1ccccc1C(=O)O` (stereo unspecified), the GI50 in [8] was 3.93 µM (inactive); in assay [1], 1.22 µM (inactive); in [2] it was 4.59 µM (inactive); in [3] it was 2.64 µM (inactive); in assay [4], 8.75 µM (inactive); in assay [5], 12.2 µM (inactive). Moreover, the figures for the GI50 in [6] and in [7] were 11.1 µM (inactive) and 1.95 µM (inactive), respectively.

For the molecule `COC(=O)N/N=C(\C)C(CN(C)C)C(c1ccccc1)c1c(O)c2ccccc2oc1=O` (stereo unspecified), the GI50 in assay [8], in assay [1], in assay [2], in assay [4], in assay [5] and in assay [6] was > 100 µM (inactive) in each case. In addition, the GI50 in assay [7] is > 100 µM (inactive).

`O=C(CCc1n[nH]c(=S)o1)Nc1ccc(Cl)cc1Cl`: the GI50 in assay [8] was > 100 µM (inactive); in assay [1] it was > 100 µM (inactive); in assay [2] it was 30.8 µM (inactive); in assay [3] it was > 100 µM (inactive); in assay [4] it was > 100 µM (inactive); in assay [5], > 100 µM (inactive). Also, the GI50 in [9] and in assay [6] was > 100 µM (inactive) each time.

As to `CN(C(=O)/C=C/c1ccccc1)C1C2CN3CCC(O2)C13` (stereo unspecified), the GI50 in assay [8], in assay [1], in assay [2], in assay [3], in [4] and in assay [6] was > 100 µM (inactive) in each case. Further, in [7], the GI50 was > 100 µM (inactive).

With `COc1cc2c(c(OC)c1OC)-c1ccc(SC)c(=O)cc1[C@@H](NC(=O)c1ccc(OC(C)=O)cc1)CC2`, the GI50 in assay [8] is 0.0323 µM (active); in assay [2] it was 0.01 µM (active); in [4], 0.0189 µM (active); in [5], 0.0265 µM (active); in assay [9], 0.0275 µM (active); in assay [6] it was 0.00451 µM (active). Further, in assay [7], the GI50 is 0.0169 µM (active).

On to `CC(C)(C)c1cc(C=C(C#N)C#N)cc(C(C)(C)C)c1O` [TYRPHOSTIN A9], for which the GI50 in assay [8] was 0.828 µM (active); in assay [1], 0.179 µM (active); in assay [2], 0.736 µM (active); in assay [4], 4.61 µM (inactive); in assay [7], 0.776 µM (active).

Values taken from ChEMBL document CHEMBL1201862, “PubChem BioAssay data set” (2004).
